These results are taken from ChEMBL document CHEMBL1833878, “Cyclodepsipeptides, sesquiterpenoids, and other cytotoxic metabolites from the filamentous fungus Trichothecium sp. (MSX 51320)” (J Nat Prod, 2011).

For orientation: pIC50 means −log10 of the IC50, conventionally taken in molar units. In general, pEC50 refers to the EC50 on a negative log10 scale, so that one unit is a factor of ten. What is called MIC is the smallest concentration in the dilution series that meets the test's criterion for growth inhibition.

pEC50, pIC50: −log10 of the molar value. In brackets after ≈: the same amount, converted by molar mass. *1 amine or outer side, *2 acyl side, *3 side chain or, on linkers, in order; H or OH if unused. Where a SMILES comes first, the peptide text is derived from it. [ ]: non-standard residue; d: D form. X1 = CC(C)(O)[C@H](O[*:1])C(=O)[*:2]; dNMeF = CN[C@H](Cc1ccccc1)C(=O)O; Hica(2S) = CC(C)C[C@H](O)C(=O)O; NMeL = CN[C@@H](CC(C)C)C(=O)O; Hiv = CC(C)[C@H](O)C(=O)O; NMeA = CN[C@@H](C)C(=O)O

Assay [1] has as its system SF-268. Nature of the assay: Cytotoxicity against human SF268 cells. The assay is classed as functional, cell-based.
The test system of assay [2] is MCF7. Nature of the assay: Cytotoxicity against human MCF7 cells. The format is functional, cell-based.
Assay [3] relates to NCI-H460. Nature of the assay: Cytotoxicity against human NCI-H460 cells. The format is functional, cell-based.
The nature of assay [4]: Cytotoxicity against human HTB-177 cells. The format is functional, cell-based.
Assay [5] has as its system Staphylococcus epidermidis. Nature of the assay: Antibacterial activity against Staphylococcus epidermidis. The assay is classed as functional.
Assay [6] deals with Enterococcus durans. Nature of the assay: Antibacterial activity against Enterococcus durans. The assay is classed as functional.
In assay [7] the test system is MDA-MB-435. Briefly: Cytotoxicity against human MDA-MB-435 cells. The format is functional, cell-based.
Assay [8] relates to HT-29. Nature of the assay: Cytotoxicity against human HT-29 cells. The format is functional, cell-based.
Assay [9] is described as follows: Cytotoxicity against human HTB-129 cells. The format is functional, cell-based.
Assay [10] can be described thus: Cytotoxicity against human HTB-38 cells. The format is functional, cell-based.

Take `COC(=O)[C@@H]1O[C@@H](O)C(=O)[C@]2(C(O)/C=C(C)/C=C/C=C(\C)CCC=C(C)C)O[C@H]12` (some centres undefined) [TRICHOTHOSPORON A]: the pIC50 in assay [1], in assay [2], in assay [3] and in assay [4] was under 5.00 each time.

Regarding `CC(C)C[C@@H]1OC(=O)[C@H](C)NC(=O)[C@H](C(C)(C)O)OC(=O)[C@H](C)N(C)C(=O)[C@@H](C)NC(=O)[C@@H](Cc2ccccc2)N(C)C1=O` [GUANGOMIDE A] (cyclo(A[Hica(2S)][dNMeF][dA][NMeA][X1])), the pEC50 in assay [1], in assay [2] and in assay [3] was 4.82 each time. The MIC in [5] and in assay [6] was 100 µg/mL (≈ 162 µM) throughout.

For the molecule `C/C=C\C(=O)O[C@@H]1CC2O[C@@H]3C=C(C)[C@@H](O)C4OCC2(O)[C@@]1(C)[C@]43C` (some centres undefined), the negative logarithm of the IC50 (pIC50) in assay [1], in assay [2], in assay [3] and in assay [4] was under 5.00 in each case.

Consider `CC(C)C[C@@H]1NC(=O)[C@H](CC(C)C)N(C)C(=O)[C@H](Cc2ccccc2)NC(=O)[C@H](CC(C)C)OC(=O)[C@H](C(C)C)OC(=O)[C@H](CO)NC1=O` [TRICHODEPSIPEPTIDE] (cyclo(F[NMeL]LS[Hiv][Hica(2S)])), for which the pIC50 in assay [7], in assay [1], in assay [8], in assay [2], in [9] and in [3] was under 5.00 each time. Also, the pIC50 in assay [4] and in assay [10] was under 5.00 throughout.

As to `CC(C)C[C@@H]1OC(=O)[C@H](C(C)C)OC(=O)[C@H](CO)NC(=O)[C@H](C(C)C)NC(=O)[C@H](CC(C)C)N(C)C(=O)[C@H](Cc2ccccc2)NC1=O` [TRICHODEPSIPEPTIDE B] (cyclo(F[NMeL]VS[Hiv][Hica(2S)])), the negative-log IC50 (pIC50) in assay [7], in assay [1], in assay [8], in [2], in assay [9] and in [3] was under 5.00 in each case. Also, the negative logarithm of the IC50 (pIC50) in [4] and in [10] was under 5.00 throughout.
